{
  "source": "patent US20220023269A1",
  "about": "“Methods Of Treating Diabetes In Severe Insulin-Resistant Diabetic Subjects” (Balticgruppen Bio AB, priority 2018, published 2022)",
  "key": {"muscle": {"tested_on": "muscle", "settings": "in vivo; cited from earlier work"}, "hypertensive rats": {"tested_on": "hypertensive rats", "settings": "acute; cited from earlier work"}, "DIO mice": {"tested_on": "DIO mice", "experiment": "Prevention of dysglycemia and insulin resistance in DIO B6 mice (oral gavage, 8 w)", "format": "in vivo", "settings": "100 mg/kg/day each, oral gavage", "procedure": "MATSUDA index was calculated via: […] […] All cell lines were lysed in 0.1 M Tris-HCl, pH 6.8, 2% SDS, 10 mM sodium fluoride (SIGMA #S7920), 10 mM β-glycerophosphate (SIGMA #G6376), and 1 mM sodium vanadate (SIGMA #72060) and supernatant collected after 1 minute at 14,000 rpm. Islets (human and mouse) were lysed in 0.1 M Tris-HCl, pH 6.8, 2% SDS, protease inhibitor (Roche #04 693 124 001) and phosphatase inhibitor (Roche #04 906 837 001). […] The supernatant was collected after 2 min at 14,000 rpm. This procedure was repeated until all fat was eliminated and the supernatant was clear, at 4° C. Samples were analysed on 4-15% polyacrylamide gels. Values were normalised toward AMPKα, β-Actin, GAPDH or the respective non-phosphorylated counterpart. For RNA purification calf muscle, iWAT, interscapular BAT, and left lateral liver lobe was crushed in a pestle using liquid nitrogen before turning to respective RNA kit. RNA from liver was prepared using Total RNA isolation Nucleospin II Kit (Macherey-Nagel #740955.50). RNA from adipose tissue was prepared using RNeasy Lipid Tissue Mini kit (Qiagen #74804). RNA from calf muscle tissue was prepared using RNeasy Fibrous Tissue Mini kit (Qiagen #74704). First strand cDNA synthesis was done using SuperScript III (First-Strand Synthesis SuperMix for qRT-PCR, Invitrogen #11752-250) according to the manufacturer's instructions. Total RNA was prepared from isolated islets using RNeasy Micro Kit (Qiagen #74004) and first strand cDNA synthesis was done using Superscript III (Invitrogen #18080-051) according to the manufacturer's instructions. Quantification of mRNA expression levels was performed essentially as previously described (Reference 3)."}, "[1]": {"tested_on": "diet-induced obese C57BL/6J mice", "experiment": "Combination therapy AMPK activator + SGLT2 inhibitor in DIO mice", "format": "in vivo", "settings": "2 weeks oral gavage, Compound 1 75 mg/kg, canagliflozin 10 mg/kg", "procedure": "Male C57BL/6J mice, 8 weeks of age were purchased from Jackson, Charles River Laboratories, Inc. (Germany). All animals were housed in the Umeå University animal facility (Umeå Centre for Comparative Biology; UCCB) with a 12:12 hour light-dark cycle (lights on at 6 a.m.) and a constant temperature of 21° C. The animals were ear marked with a unique identification number, and groups of 5 mice were housed in transparent polycarbonate cages that comply with the requirements of the Code of Practice for the housing and care of animals used in scientific procedures. Wood chips were used as bedding material and environmental enrichment was provided. Animals were allowed to acclimate for 15 weeks to their new environment before the onset of the study. The animals were allowed ad libitum access to tap water throughout the accommodation and study period. During the acclimation period, the animals were allowed a standard pelleted diet (CRM (E) Rodent, Special Diets Services, Scanbur BK, Sweden). At the start of the study, the standard diet was changed to a very high fat diet (vHFD; Cat. No. D12492, Research Diets, Inc.) and this diet was kept throughout the whole study period. All of the procedures were approved by the Local Ethics Review Committee on Animal Experiments, Umeå Region.\n23 Weeks old male C57BL/6J mice were fed HFD to promote diet-induced obesity (DIO) and administered once daily by oral gavage; vehicle (phosphate buffer pH 7.3, 2% w/v methyl cellulose; n=11), canagliflozin 10 mg/kg (n=14), Compound 1 at 75 mg/kg (n=14) and the combination of canagliflozin 10 mg/kg and Compound 1 at […] (n=15). After 2 weeks of treatment, fasted (6 hour) blood glucose and plasma insulin levels (determined in tail vein blood samples) were analysed. Food intake and weight were monitored throughout the study.\nBlood samples were collected from the tail vein in Potassium-EDTA vials and plasma was separated by centrifugation and stored at −20° C. until assayed. Plasma insulin was determined with mouse insulin ELISA (Ultra Sensitive Mouse insulin ELISA Kit). Glucose concentrations were analysed in tail vein blood using a OneTouch® Ultra®2 Blood Glucose Meter (LifeScan, Inc).\nResults shown in the figures are expressed as means±standard error of the mean (S.E.M.) for the number of animals per group. Statistical significance between the control group and the three treatment groups were analysed by Student's t-test, with P<0.05 considered statistically significant."}, "AMPK in HeLa cells": {"tested_on": "AMPK in HeLa cells", "experiment": "AMPK activation assay in HeLa cells (LKB1 null)", "format": "cell-based, human", "settings": "1 μM, last 20 minutes", "procedure": "All cell lines were lysed in 0.1 M Tris-HCl, pH 6.8, 2% SDS, 10 mM sodium fluoride (SIGMA #S7920), 10 mM β-glycerophosphate (SIGMA #G6376), and 1 mM sodium vanadate (SIGMA #72060) and supernatant collected after 1 minute at 14,000 rpm. Islets (human and mouse) were lysed in 0.1 M Tris-HCl, pH 6.8, 2% SDS, protease inhibitor (Roche #04 693 124 001) and phosphatase inhibitor (Roche #04 906 837 001). Right calf muscle, heart, iWAT, and interscapular BAT was crushed in a pestle using liquid nitrogen and homogenised in ice cold RIPA buffer (150 mM sodium chloride (SIGMA #S7653), 1.0% NP40 (USB), 0.5% sodium deoxycholate (SIGMA #D6750), 0.1% SDS, 50 mM Tris pH 8.0, 20 mM sodium pyrophosphate (SIGMA #71515), 10 mM sodium fluoride, 10 mM β-glycerolphosphate, 1 mM sodium vanadate and protease inhibitor cocktail (Roche #04693124001), 1 tablet/10 ml lysis buffer). The supernatant was collected after 2 min at 14,000 rpm. This procedure was repeated until all fat was eliminated and the supernatant was clear, at 4° C. Samples were analysed on 4-15% polyacrylamide gels. Values were normalised toward AMPKα, β-Actin, GAPDH or the respective non-phosphorylated counterpart.\nTable 3 contains origin of cell lines, growth conditions and settings for activation of AMPK via the test material. […]"}},
  "data": [
    {"smiles": "NC(=O)c1ncn([C@@H]2O[C@H](CO)[C@@H](O)[C@H]2O)c1N", "note": "[AICAR, 5-aminoimidazole-4-carboxyamide-1-β-D-ribofuranoside]", "values": [
      {"measurement": "microvascular perfusion in muscle", "setting": "muscle", "value": "increases microvascular perfusion in muscle"},
      {"measurement": "blood pressure", "setting": "hypertensive rats", "value": "acutely lower blood pressure"}
    ]},
    {"smiles": "CN(C)C(=N)N=C(N)N", "note": "[Metformin, reference compound]", "values": [
      {"measurement": "HFD-provoked increase in fasted glucose", "setting": "DIO mice; 6 w", "value": "no significant effect"},
      {"measurement": "HFD-provoked increase in fasted plasma insulin", "setting": "DIO mice; 6 w", "value": "no significant effect"},
      {"measurement": "insulin resistance (HOMA-IR)", "setting": "DIO mice; vs vehicle", "value": "no significant effect"}
    ]},
    {"smiles": "Cc1ccc([C@@H]2O[C@H](CO)[C@@H](O)[C@H](O)[C@H]2O)cc1Cc1ccc(-c2ccc(F)cc2)s1", "note": "[canagliflozin]", "values": [
      {"measurement": "HOMA-IR", "setting": "[1]", "value": "lesser reduction"},
      {"measurement": "fasted blood glucose", "setting": "[1]; 6 hour fast", "value": "lesser reduction"},
      {"measurement": "fasted plasma insulin", "setting": "[1]; 6 hour fast", "value": "lesser reduction"}
    ]},
    {"smiles": "C[C@H](CCC(=O)O)C[C@H](C)C[C@H](C)C(=O)/C=C(\\O)[C@H](C)C[C@H](C)C/C=C/[C@@H](C)[C@@H](O)[C@@H](C)[C@@H](O)C[C@@H]1CC[C@@](C)([C@H]2CC[C@@](C)([C@@H](C)O)O2)O1", "note": "[ionomycin, reference compound]", "values": [
      {"measurement": "AMPK activation (control)", "setting": "AMPK in HeLa cells", "value": "readily activated AMPK"}
    ]}
  ]
}
